Experiments:
Assay in all cases: Test B pre-/postemergence
Assay type in all cases: in vivo
Design in all cases: key: 0 is no effect; 10 is complete control
[1] = tested on: corn (Zea mays)
Method in brief: (§1)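 Compounds in a surfactant-containing, non-phytotoxic solvent blend are applied to freshly planted seed (preemergence) and, concurrently, to seedlings of 2 to 18 cm at 1–4 leaves (postemergence). Plants stay in the greenhouse twelve to sixteen days and are then scored visually from 0 (no effect) to 10 (complete control).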

[2] = tested on: wheat (Triticum aestivum)
Method in brief: as §1

[3] = tested on: momingglory (Ipomoea hederacea)
Method in brief: as §1

[4] = tested on: sugar beet (Beta vulgaris)
Method in brief: as §1

[5] = tested on: velvetleaf (Abutilon theophrasti)
Method in brief: as §1

[6] = tested on: bedstraw (Galium aparine)
Method in brief: as §1

[7] = tested on: rape (Brassica napus)
Method in brief: as §1

[8] = tested on: pigweed (Amaranthus retroflexus)
Method in brief: as §1

[9] = tested on: cocklebur (Xanthium strumarium)
Method in brief: as §1

[10] = tested on: blackgrass (Alopecurus myosuroides)
Method in brief: as §1

[11] = tested on: wild oat (Avena fatua)
Method in brief: as §1

[12] = tested on: soybean (Glycine max)
Method in brief: as §1

[13] = tested on: crabgrass (Digitaria sanguinalis)
Method in brief: as §1

[14] = tested on: broadleaf signalgrass (Brachiaria decumbens)
Method in brief: as §1

`Cc1cnc(-c2ccc(C(F)(F)F)cc2)nc1Cn1nc(C(F)(F)F)cc1C` [Compound 13] was tested, and the “Plant response rating, Corn” value ([1]; Rate 62 g/ha, Postemergence) was 3, the “Corn plant response rating” value ([1]; Rate 62 g/ha, Preemergence) was 1 and the “Plant response rating, Corn” value ([1]; Rate 125 g/ha, Postemergence) was 3. The “Corn plant response rating” value ([1]; Rate 125 g/ha, Preemergence) was 1, the “Plant response rating, Corn” value ([1]; Rate 250 g/ha, Postemergence) was 3 and the “Plant response rating, Corn” value ([1]; Rate 250 g/ha, Preemergence) was 1. The “Plant response rating, Corn” value ([1]; Rate 500 g/ha, Postemergence) was 4, the “Plant response rating, Corn” value ([1]; Rate 500 g/ha, Preemergence) was 2 and the “Plant response rating, Wheat” value ([2]; Rate 62 g/ha, Postemergence) was 2. The “Wheat plant response rating” value ([2]; Rate 62 g/ha, Preemergence) was 0, the “Plant response rating, Wheat” value ([2]; Rate 125 g/ha, Postemergence) was 3 and the “Wheat plant response rating” value ([2]; Rate 125 g/ha, Preemergence) was 0. The “Plant response rating, Wheat” value ([2]; Rate 250 g/ha, Postemergence) was 3, the “Plant response rating, Wheat” value ([2]; Rate 250 g/ha, Preemergence) was 0 and the “Plant response rating, Wheat” value ([2]; Rate 500 g/ha, Postemergence) was 4. For the same molecule, the “Plant response rating, Wheat” value ([2]; Rate 500 g/ha, Preemergence) was 1, the “Plant response rating, Morningglory” value ([3]; Rate 62 g/ha, Postemergence) was 7 and the “Morningglory plant response rating” value ([3]; Rate 62 g/ha, Preemergence) was 9. For the same molecule, the “Plant response rating, Morningglory” value ([3]; Rate 125 g/ha, Postemergence) was 7, the “Morningglory plant response rating” value ([3]; Rate 125 g/ha, Preemergence) was 10 and the “Plant response rating, Morningglory” value ([3]; Rate 250 g/ha, Postemergence) was 9. For the same molecule, the “Plant response rating, Morningglory” value ([3]; Rate 250 g/ha, Preemergence) was 9, the “Plant response rating, Morningglory” value ([3]; Rate 500 g/ha, Postemergence) was 9 and the “Plant response rating, Morningglory” value ([3]; Rate 500 g/ha, Preemergence) was 10. For the same molecule, the “Plant response rating, Sugarbeets” value ([4]; Rate 62 g/ha, Postemergence) was 9, the “Sugarbeets plant response rating” value ([4]; Rate 62 g/ha, Preemergence) was 9 and the “Plant response rating, Sugarbeets” value ([4]; Rate 125 g/ha, Postemergence) was 10. For the same molecule, the “Sugarbeets plant response rating” value ([4]; Rate 125 g/ha, Preemergence) was 10, the “Plant response rating, Sugarbeets” value ([4]; Rate 250 g/ha, Postemergence) was 10 and the “Plant response rating, Sugarbeets” value ([4]; Rate 250 g/ha, Preemergence) was 10. For the same molecule, the “Plant response rating, Sugarbeets” value ([4]; Rate 500 g/ha, Postemergence) was 10, the “Plant response rating, Sugarbeets” value ([4]; Rate 500 g/ha, Preemergence) was 10 and the “Plant response rating, Velvetleaf” value ([5]; Rate 62 g/ha, Postemergence) was 4. For the same molecule, the “Velvetleaf plant response rating” value ([5]; Rate 62 g/ha, Preemergence) was 6, the “Plant response rating, Velvetleaf” value ([5]; Rate 125 g/ha, Postemergence) was 4 and the “Velvetleaf plant response rating” value ([5]; Rate 125 g/ha, Preemergence) was 7. For the same molecule, the “Plant response rating, Velvetleaf” value ([5]; Rate 250 g/ha, Postemergence) was 8, the “Plant response rating, Velvetleaf” value ([5]; Rate 250 g/ha, Preemergence) was 10 and the “Plant response rating, Velvetleaf” value ([5]; Rate 500 g/ha, Postemergence) was 8. The “Plant response rating, Velvetleaf” value ([5]; Rate 500 g/ha, Preemergence) was 10, the “Plant response rating, Bedstraw” value ([6]; Rate 62 g/ha, Postemergence) was 7 and the “Bedstraw plant response rating” value ([6]; Rate 62 g/ha, Preemergence) was 1. For the same molecule, the “Plant response rating, Bedstraw” value ([6]; Rate 125 g/ha, Postemergence) was 9, the “Bedstraw plant response rating” value ([6]; Rate 125 g/ha, Preemergence) was 2 and the “Plant response rating, Bedstraw” value ([6]; Rate 250 g/ha, Postemergence) was 10. For the same molecule, the “Plant response rating, Bedstraw” value ([6]; Rate 250 g/ha, Preemergence) was 5, the “Plant response rating, Bedstraw” value ([6]; Rate 500 g/ha, Postemergence) was 10 and the “Plant response rating, Bedstraw” value ([6]; Rate 500 g/ha, Preemergence) was 6. The “Plant response rating, Rape” value ([7]; Rate 62 g/ha, Postemergence) was 6, the “Rape plant response rating” value ([7]; Rate 62 g/ha, Preemergence) was 5 and the “Plant response rating, Rape” value ([7]; Rate 125 g/ha, Postemergence) was 8. The “Rape plant response rating” value ([7]; Rate 125 g/ha, Preemergence) was 6, the “Plant response rating, Rape” value ([7]; Rate 250 g/ha, Postemergence) was 9 and the “Plant response rating, Rape” value ([7]; Rate 250 g/ha, Preemergence) was 9. For the same molecule, the “Plant response rating, Rape” value ([7]; Rate 500 g/ha, Postemergence) was 9, the “Plant response rating, Rape” value ([7]; Rate 500 g/ha, Preemergence) was 9 and the “Plant response rating, Redroot pigweed” value ([8]; Rate 62 g/ha, Postemergence) was 9. For the same molecule, the “Redroot pigweed plant response rating” value ([8]; Rate 62 g/ha, Preemergence) was 7, the “Plant response rating, Redroot pigweed” value ([8]; Rate 125 g/ha, Postemergence) was 9 and the “Redroot pigweed plant response rating” value ([8]; Rate 125 g/ha, Preemergence) was 9. The “Plant response rating, Redroot pigweed” value ([8]; Rate 250 g/ha, Postemergence) was 10, the “Plant response rating, Redroot pigweed” value ([8]; Rate 250 g/ha, Preemergence) was 9 and the “Plant response rating, Redroot pigweed” value ([8]; Rate 500 g/ha, Postemergence) was 10. The “Plant response rating, Redroot pigweed” value ([8]; Rate 500 g/ha, Preemergence) was 9, the “Plant response rating, Cocklebur” value ([9]; Rate 62 g/ha, Postemergence) was 6 and the “Cocklebur plant response rating” value ([9]; Rate 62 g/ha, Preemergence) was 0. The “Plant response rating, Cocklebur” value ([9]; Rate 125 g/ha, Postemergence) was 9, the “Plant response rating, Cocklebur” value ([9]; Rate 250 g/ha, Postemergence) was 9 and the “Plant response rating, Cocklebur” value ([9]; Rate 250 g/ha, Preemergence) was 5. The “Plant response rating, Cocklebur” value ([9]; Rate 500 g/ha, Postemergence) was 9, the “Plant response rating, Cocklebur” value ([9]; Rate 500 g/ha, Preemergence) was 7 and the “Plant response rating, Blackgrass” value ([10]; Rate 62 g/ha, Postemergence) was 3. The “Blackgrass plant response rating” value ([10]; Rate 62 g/ha, Preemergence) was 2, the “Plant response rating, Blackgrass” value ([10]; Rate 125 g/ha, Postemergence) was 3 and the “Blackgrass plant response rating” value ([10]; Rate 125 g/ha, Preemergence) was 4. For the same molecule, the “Plant response rating, Blackgrass” value ([10]; Rate 250 g/ha, Postemergence) was 5, the “Plant response rating, Blackgrass” value ([10]; Rate 250 g/ha, Preemergence) was 4 and the “Plant response rating, Blackgrass” value ([10]; Rate 500 g/ha, Postemergence) was 5. For the same molecule, the “Plant response rating, Blackgrass” value ([10]; Rate 500 g/ha, Preemergence) was 9, the “Plant response rating, Wild oats” value ([11]; Rate 62 g/ha, Postemergence) was 3 and the “Wild oats plant response rating” value ([11]; Rate 62 g/ha, Preemergence) was 3. For the same molecule, the “Plant response rating, Wild oats” value ([11]; Rate 125 g/ha, Postemergence) was 3, the “Wild oats plant response rating” value ([11]; Rate 125 g/ha, Preemergence) was 5 and the “Plant response rating, Wild oats” value ([11]; Rate 250 g/ha, Postemergence) was 4. The “Plant response rating, Wild oats” value ([11]; Rate 250 g/ha, Preemergence) was 7, the “Plant response rating, Wild oats” value ([11]; Rate 500 g/ha, Postemergence) was 4 and the “Plant response rating, Wild oats” value ([11]; Rate 500 g/ha, Preemergence) was 9. For the same molecule, the “Plant response rating, Soybean” value ([12]; Rate 62 g/ha, Postemergence) was 4, the “Soybean plant response rating” value ([12]; Rate 62 g/ha, Preemergence) was 1 and the “Plant response rating, Soybean” value ([12]; Rate 125 g/ha, Postemergence) was 5. The “Soybean plant response rating” value ([12]; Rate 125 g/ha, Preemergence) was 1, the “Plant response rating, Soybean” value ([12]; Rate 250 g/ha, Postemergence) was 5 and the “Plant response rating, Soybean” value ([12]; Rate 250 g/ha, Preemergence) was 3. For the same molecule, the “Plant response rating, Soybean” value ([12]; Rate 500 g/ha, Postemergence) was 5, the “Plant response rating, Soybean” value ([12]; Rate 500 g/ha, Preemergence) was 3 and the “Plant response rating, Crabgrass” value ([13]; Rate 62 g/ha, Postemergence) was 3. The “Crabgrass plant response rating” value ([13]; Rate 62 g/ha, Preemergence) was 9, the “Plant response rating, Crabgrass” value ([13]; Rate 125 g/ha, Postemergence) was 4 and the “Crabgrass plant response rating” value ([13]; Rate 125 g/ha, Preemergence) was 10. For the same molecule, the “Plant response rating, Crabgrass” value ([13]; Rate 250 g/ha, Postemergence) was 7, the “Plant response rating, Crabgrass” value ([13]; Rate 250 g/ha, Preemergence) was 10 and the “Plant response rating, Crabgrass” value ([13]; Rate 500 g/ha, Postemergence) was 9. The “Plant response rating, Crabgrass” value ([13]; Rate 500 g/ha, Preemergence) was 10, the “Plant response rating, B. signalgrass” value ([14]; Rate 62 g/ha, Postemergence) was 5 and the “B. signalgrass plant response rating” value ([14]; Rate 62 g/ha, Preemergence) was 7. The “Plant response rating, B. signalgrass” value ([14]; Rate 125 g/ha, Postemergence) was 5, the “B. signalgrass plant response rating” value ([14]; Rate 125 g/ha, Preemergence) was 8 and the “Plant response rating, B. signalgrass” value ([14]; Rate 250 g/ha, Postemergence) was 7. For the same molecule, the “Plant response rating, B. signalgrass” value ([14]; Rate 250 g/ha, Preemergence) was 9, the “Plant response rating, B. signalgrass” value ([14]; Rate 500 g/ha, Postemergence) was 8 and the “Plant response rating, B. signalgrass” value ([14]; Rate 500 g/ha, Preemergence) was 9.
